The text below walks through data of patent publication US7767854B2, “N-substituted phenylacetamide derivative and pharmaceutical composition containing the same” (Dainippon Sumitomo Pharma Co., Ltd., priority 2005, dated 2010).

The conditions of series [1]: cited from earlier work.
Series [2] in a line: Analgesic effect of prior-art compounds (background statement).

The structures appear in SMILES notation. Entries after “also recorded” stand apart in the source; their conditions may differ.

`COc1cc(CC(=O)NC2CCCCC2)ccc1O` [drawing 3]: in series [1] (Arzneim.-Forsch., 25, 1877 (1975)), the irritancy entry was “a little lower irritancy than capsaicin”. Moreover, the “stimulatory effect and desensitization” value in series [1] (Arzneim.-Forsch., 26, 33 (1976)) is “strong stimulatory; also recorded: weak desensitization”. For the same molecule, the analgesic effect result in series [2] was “little analgesic effect”.
